Measured values: US20140178479A1, “Concentrated Felbamate Formulations for Parenteral Administration” (PEROSPHERE, INC., priority 2011, published 2014)

Experiments:
[1] = cited from earlier work
[2] = SEM imaging of precipitated microparticles; type: physicochemical
Protocol: Felbamate was dissolved in dimethyl sulfoxide to create a five weight per volume percent solution. The felbamate solution was introduced into one hundred times the volume of a one weight per volume percent polysorbate 20 aqueous solution stirred at 1,500 revolutions per minute using an overhead mixer equipped with an impeller blade. The resultant microparticles of felbamate were imaged using SEM. […] Under the same experimental conditions, Span 80 was substituted for polysorbate 20.
Felbamate was dissolved in glycerin heated above 120° C. to create a 5% weight per volume solution. The felbamate solution was introduced into one hundred times the volume of a one weight per volume percent polysorbate 20 aqueous solution stirred at 1,500 revolutions per minute using an overhead mixer equipped with an impeller blade. The resultant microparticles of felbamate were imaged using SEM.

[3] = injection of supersaturated solution into 37° C. phosphate buffered saline; type: physicochemical
Protocol: A supersaturated 10 weight per volume percent felbamate solution in PEG 300 was injected into 37° C. phosphate buffered saline. […] Additional felbamate supersaturated solution at the same concentration was added 10 microliters at a time without forming solid particles up to at least 50 microliters.

[4] = cited from earlier work; remark: listed apart in the source
[5] = supersaturated solution: remaining in solution after heating and cooling; type: physicochemical
Protocol: Felbamate was added at a concentration of up to 20 weight per volume percent to polyethylene glycol 300 and polyethylene glycol 400. Solutions were heated above 70° C. after which the felbamate dissolved.
Felbamate was added at a concentration of up to 10 weight per volume percent in 65 volume per volume percent polyethylene glycol 300, 20 volume per volume percent polyethylene glycol 400, and 15 volume per volume percent propylene glycol. In a separate experiment, felbamate was added at a concentration of up to 10 weight per volume percent in 65 volume per volume percent polyethylene glycol 300, 20 volume per volume percent polyethylene glycol 400, 10 volume per volume percent propylene glycol, and 5 volume per volume percent polyethylene glycol 600.
Solutions were heated above 70° C. after which the felbamate dissolved.
Fluorofelbamate was added at a concentration of 10 weight per volume percent to polyethylene glycol 300. Solutions were heated above approximately 80° C. after which the fluorofelbamate dissolved.

CYP2C19 = CYP2C19 (Homo sapiens, UniProt P33261); details: cited from earlier work
Sequence of CYP2C19 (P33261 whole entry): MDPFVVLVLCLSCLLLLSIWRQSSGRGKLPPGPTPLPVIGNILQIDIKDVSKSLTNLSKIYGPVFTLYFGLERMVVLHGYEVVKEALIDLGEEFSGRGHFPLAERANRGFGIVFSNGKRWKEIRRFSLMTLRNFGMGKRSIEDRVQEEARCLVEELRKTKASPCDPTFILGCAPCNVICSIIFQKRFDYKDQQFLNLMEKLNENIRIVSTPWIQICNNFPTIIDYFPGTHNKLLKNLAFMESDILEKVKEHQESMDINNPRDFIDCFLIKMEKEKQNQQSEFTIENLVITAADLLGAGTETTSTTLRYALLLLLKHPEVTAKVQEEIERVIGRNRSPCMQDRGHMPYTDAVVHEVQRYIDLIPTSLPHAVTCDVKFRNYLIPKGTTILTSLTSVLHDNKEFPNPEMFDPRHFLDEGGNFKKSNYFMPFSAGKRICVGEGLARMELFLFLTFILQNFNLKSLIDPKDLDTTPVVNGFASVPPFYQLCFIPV

## NC(=O)OCC(COC(N)=O)c1ccccc1 [Felbamate]
[1]; chronic oral dosing
  share of aplastic anemia cases that are fatal: 30%
[1]; single administration
  aplastic anemia after a single administration: has not been shown to develop
[2]; glycerin / polysorbate 20 microparticles compared with native powder
  particle size by SEM: hundreds of microns
[2]; same conditions, Span 80 substituted for polysorbate 20
  particle form: formed crystals, which are unsuitable for injection
[3]; 10 w/v % in PEG 300, added 10 microliters at a time to 37° C. phosphate buffered saline
  volume of additional supersaturated solution added without forming solid particles: at least 50 microliters
[3]; supersaturated 10 w/v % solution in PEG 300 injected into 37° C. phosphate buffered saline
  solid particles on injection: No solid particles were observed
[4]
  solubility in water: less than one
[5]; PEG 300 / PEG 400 sample heated or cooled to 40° C., 4° C., and −20° C. for 30 minutes, then returned to 25° C.
  solution state after heating or cooling: remained in solution
[5]; polyethylene glycol 300 and polyethylene glycol 400, heated above 70° C., cooled to room temperature approx. 25°
  concentration of samples that remained in solution: ≤ 12.5 weight per volume percent
[5]; up to 10 w/v % in 65 v/v % PEG 300, 20 v/v % PEG 400, 10 v/v % propylene glycol, 5 v/v % PEG 600, approx. 25° C.
  time remained in solution: at least 1 day
[5]; up to 10 w/v % in 65 v/v % PEG 300, 20 v/v % PEG 400, 15 v/v % propylene glycol, approx. 25° C.
  time remained in solution: at least 1 day
[5]; up to approx. 12.5 weight per volume percent in polyethylene glycol 300 and polyethylene glycol 400, room temperature approx. 25°
  time remained in solution: at least eight
CYP2C19
  effect on CYP2C19: inhibitor

## NC(=O)OCC(F)(COC(N)=O)c1ccccc1 [Fluorofelbamate]
[4]
  solubility in water: less than one
[5]; 10 w/v % in polyethylene glycol 300, heated above approx. 80° C., cooled to approx. 25°
  time remained in solution: at least 1 month
